# Assay results taken from US6841577B2, “Pesticidal activity of plant essential oils and their constituents” (Ecosmart Technologies, Inc., priority 1999, dated 2005).
# Key:
# [1] = test system: octopamine receptor sites; experiment: 3H-OA binding to ventral nerve cord / synaptosomal membrane protein; design: species or system American cockroach (Periplaneta americana); conditions: for cpm 3H-OA/500 μg protein: Table 1, solvent control 1280 ± 259
# How it was run: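 Ventral nerve cord membrane protein preincubated 20 min with test chemicals (in acetone), with or without 50 ng unlabelled OA. ^3H-OA (100,000 cpm/sample) then bound 30 min at 24 °C, followed by GF/C filtration and scintillation counting. Specific binding taken as total minus binding with unlabelled OA; mean ± SD of 5 assays.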
# American cockroach [2] = experiment: Lethal effect of injected test chemicals; type: in vivo; conditions: dead/10
# Procedure: Further studies were conducted to determine the LD 50 of purified naturally occurring plant essential oils and/or their constituents. […] Ten roaches per dose were used. Another group of ten roaches received the same volume of vehicle only (0.5 μl) and used as a control group. Mortality was recorded 24, 48, and 72 hours after exposure.
# [3] = test system: heart of American cockroach (octopamine receptors); experiment: Heartbeat after application to thoracic segment; type: in vivo; conditions: mean ±SD of three roaches
# Procedure: To further establish the effect of the purified naturally occurring plant essential oils and/or their constituents on the American cockroach, a 300 μg amount of the chemical was applied to the thoracic segment of an intact and alive American cockroach. The heart beats/30 seconds was measured. The heart of the cockroach is known to have a high concentration of octopamine receptors and the heart beat is considered an important measurement to indicate the effect of the applied chemicals to the octopamine receptors.
# [4] = test system: 2nd instar green peach aphid nymphs; experiment: Cabbage leaf disc bioassay; type: in vivo
# Procedure: A bioassay similar to that for S. litura larvae was used for additional larvae. Cabbage leaf discs were dipped in emulsified aqueous solutions, diluted 1:200 in water, on which 2nd instar green peach aphid nymphs were placed. For each treatment there was 10 aphids per disc with 5 replicates; each experiment was replicated in time (successive days) from 3-5 times. After 24 hours, aphids were reported as being (1) on the leaf disc and feeding; (2) alive, but walking off the disc; or (3) dead. In the field, aphids which cease feeding and abandon a host plant are very unlikely to survive.
# American cockroach [5] = experiment: Cross walk jar test on pre-treated surface; type: in vivo; conditions: Periplaneta americana, 24 h
# Procedure: In the test, a known amount of the test material was dissolved in a known volume of acetone and applied to small jars and all inner bottom surfaces were covered. The bottom surface of each jar is approximately 250 cm^2. One hour after the acetone had completely evaporated, five American cockroaches were introduced to each jar. Control jars were treated exactly as above but with the known amount of acetone only.
# The results of the “cross walk” jar tests are in Table 8 in which the “4-blend” was dispersed as an aerosol and a dust in the jar.
# In this test, the acetone solution of the test material was placed in the jar and the roach inserted into the jar after the acetone had evaporated.
# Mortality was measured 24 hours after exposure.
# The “4-blend” and the individual constituents of the “4-blend” were tested using 10 cockroaches for each “cross walk” treatment. In addition, pyrethrins were tested separately and mixed with the various components.
# A concentration of 100 mg/jar was used for each individual alone. In the co-treatment experiment without pyrethrins, 20 mg/jar for each chemical was used. In the cotreatment experiment with pyrethrins, 20 mg/jar for the naturally occurring plant material was used. Pyrethrins was used at 2 mg/jar. […] It was noted above that the mortality is dependent upon concentration. […] Some synergism is found between pyrethrins and either α-terpineol or benzyl alcohol.
# American cockroaches = experiment: Cross walk testing with eugenol in acetone or Isopar M; type: in vivo, American cockroach; design: KD (knockdown), of 5: unit not given beside the values
# Procedure: Additional “cross walk” testing was conducted with eugenol. Table 18 provides data for 5% (by volume) eugenol in acetone and Table 19 provides data for 1% eugenol in acetone wherein five (5) American cockroaches were placed in the screened jars after the acetone had evaporated. IM=immobilized; KD=knockdown; D=dead; L=live (no effect).
# Table 20 provides data for 5% (by volume) eugenol in 95% Isopar M and Table 21 provides data for 1% (by volume) eugenol in 99% Isopar M. Isopar M is an isoparaffinic hydrocarbon sold by Exxon Corporation.
# [6] = 1% eugenol in 99% Isopar M, 2 min
# [7] = 1% eugenol in 99% Isopar M, 5 min
# [8] = 1% eugenol in 99% Isopar M, 45 min
# [9] = 5% eugenol in 95% Isopar M, 2 min
# [10] = 5% eugenol in 95% Isopar M, 5 min
structure (smiles),measurement,setting,value
C=CCc1ccc(O)c(OC)c1 [eugenol],cpm 3H-OA/500 μg protein,[1]; 300 ng test chemical,818 ± 93 cpm 3H-OA/500 μg protein
same,cpm 3H-OA/500 μg protein,[1]; 500 ng test chemical,730 ± 59 cpm 3H-OA/500 μg protein
same,cpm 3H-OA/500 μg protein,[1]; 700 ng test chemical,453 ± 39 cpm 3H-OA/500 μg protein
same,cpm 3H-OA/500 μg protein,[1]; 1000 ng test chemical,226 ± 15 cpm 3H-OA/500 μg protein
same,cpm 3H-OA/500 μg protein,[1]; 1500 ng test chemical,200 ± 17 cpm 3H-OA/500 μg protein
same,classification with respect to octopamine receptor sites (OAR),[1]; based on the binding data of Tables 1-3,high OAR antagonists
same,Mortality 24 hr after treatment,American cockroach [2]; 300 μg,2/10
same,Mortality 24 hr after treatment,American cockroach [2]; 400 μg,3/10
same,Mortality,"American cockroach [2]; 500 μg/roach injected into thoracic and abdominal segments, 24 hr.",6/10
same,Mortality,"American cockroach [2]; 500 μg/roach injected, 48 hr.",6/10
same,Mortality,"American cockroach [2]; 500 μg/roach injected, 72 hr., control 1/10",6/10
same,Mortality 24 hr after treatment,American cockroach [2]; 500 μg,5/10
same,Mortality 24 hr after treatment,American cockroach [2]; 600 μg,8/10
same,Mortality 24 hr after treatment,American cockroach [2]; 700 μg,9/10
same,Heart beat/30 sec 30 min after treatment,[3]; 300 μg applied to thoracic segment,24 ± 1 beat/30 sec
same,Heart beat/30 sec before treatment,[3]; baseline of the same roaches,55 ± 3 beat/30 sec
same,"activity on green peach aphid nymphs, in words",[4]; 1:200 dilution,somewhat more active
same,Percentage of aphids Walking (off disc),"[4]; diluted 1:200 in water, after 24 hours, n = 250, Table 16, control 23.4",38.3%
same,Percentage of aphids Dead,"[4]; diluted 1:200 in water, after 24 hours, n = 250, Table 16, control 24.8",44.3%
same,Percentage of aphids Feeding,"[4]; diluted 1:200 in water, after 24 hours, n = 250, Table 16, control 51.7",17.7%
same,mortality at 100 mg,American cockroach [5],100%
same,"D (dead), of 5",American cockroaches; [6],2/5
same,"IM (immobilized), of 5",American cockroaches; [6],1/5
same,"KD (knockdown), of 5",American cockroaches; [6],1/5
same,"D (dead), of 5",American cockroaches; [7],3/5
same,"IM (immobilized), of 5",American cockroaches; [7],1/5
same,"IM (immobilized), of 5","American cockroaches; 1% eugenol in 99% Isopar M, 15 min",2/5 IM
same,"IM (immobilized), of 5","American cockroaches; 1% eugenol in 99% Isopar M, 30 min",2/5 IM
same,"D (dead), of 5",American cockroaches; [8],4/5
same,"IM (immobilized), of 5",American cockroaches; [8],1/5
same,"IM (immobilized), of 5","American cockroaches; 1% eugenol in 99% Isopar M, 1 hr.",1/5 IM
same,"D (dead), of 5","American cockroaches; 1% eugenol in 99% Isopar M, 1.5 hr.",5/5 D
same,"L (live, no effect), of 5","American cockroaches; 1% eugenol in acetone, 2 min",5/5 L
same,"L (live, no effect), of 5","American cockroaches; 1% eugenol in acetone, 30 min",5/5 L
same,"IM (immobilized), of 5","American cockroaches; 1% eugenol in acetone, 45 min",3/5 IM
same,"IM (immobilized), of 5","American cockroaches; 1% eugenol in acetone, 1 hr.",3/5
same,"KD (knockdown), of 5","American cockroaches; 1% eugenol in acetone, 1 hr.",1/5
same,"IM (immobilized), of 5","American cockroaches; 1% eugenol in acetone, 1.5 hr.",3/5
same,"KD (knockdown), of 5","American cockroaches; 1% eugenol in acetone, 1.5 hr.",1/5
same,"IM (immobilized), of 5","American cockroaches; 1% eugenol in acetone, 2 hr.",3/5
same,"KD (knockdown), of 5","American cockroaches; 1% eugenol in acetone, 2 hr.",1/5
same,"IM (immobilized), of 5","American cockroaches; 1% eugenol in acetone, 4 hr.",3/5
same,"KD (knockdown), of 5","American cockroaches; 1% eugenol in acetone, 4 hr.",1/5
same,"IM (immobilized), of 5","American cockroaches; 1% eugenol in acetone, 24 hr., (KD/IM recover)",2/5 IM (KD/IM recover)
same,"D (dead), of 5",American cockroaches; [9],2/5
same,"IM (immobilized), of 5",American cockroaches; [9],1/5
same,"D (dead), of 5",American cockroaches; [10],4/5
same,"IM (immobilized), of 5",American cockroaches; [10],1/5
same,"D (dead), of 5","American cockroaches; 5% eugenol in 95% Isopar M, 10 min",5/5 D
same,"IM (immobilized), of 5","American cockroaches; 5% eugenol in acetone, 2 min",1/5 IM
same,"IM (immobilized), of 5","American cockroaches; 5% eugenol in acetone, 5 min",1/5 IM
same,"IM (immobilized), of 5","American cockroaches; 5% eugenol in acetone, 15 min",3/5 IM
same,"IM (immobilized), of 5","American cockroaches; 5% eugenol in acetone, 30 min",3/5
same,"KD (knockdown), of 5","American cockroaches; 5% eugenol in acetone, 30 min",1/5
same,"IM (immobilized), of 5","American cockroaches; 5% eugenol in acetone, 45 min",3/5
same,"KD (knockdown), of 5","American cockroaches; 5% eugenol in acetone, 45 min",1/5
same,"IM (immobilized), of 5","American cockroaches; 5% eugenol in acetone, 1 hr.",4/5
same,"KD (knockdown), of 5","American cockroaches; 5% eugenol in acetone, 1 hr.",1/5
same,"IM (immobilized), of 5","American cockroaches; 5% eugenol in acetone, 1.5 hr.",4/5
same,"KD (knockdown), of 5","American cockroaches; 5% eugenol in acetone, 1.5 hr.",1/5
same,"IM (immobilized), of 5","American cockroaches; 5% eugenol in acetone, 2 hr.",4/5
same,"KD (knockdown), of 5","American cockroaches; 5% eugenol in acetone, 2 hr.",1/5
same,"D (dead), of 5","American cockroaches; 5% eugenol in acetone, 4 hr.",4/5
same,"KD (knockdown), of 5","American cockroaches; 5% eugenol in acetone, 4 hr.",1/5
same,"D (dead), of 5","American cockroaches; 5% eugenol in acetone, 24 hr.",5/5 D
same,"effectiveness as a pesticide for American cockroaches, in words","American cockroaches; 5% eugenol, in both modes of use (acetone, Isopar M)",highly effective
